Measured values published in patent publication US20240409585A1, “MACROCYCLIC IMMUNOMODULATORS” (priority 2021, published 2024).
Bridge positions count the residues as written; N and C are the ends. Square brackets hold non-standard residues; d marks the D form. Peptide text beside a SMILES is read from it. * marks the point of attachment. Phe(4-COOH) = N[C@@H](Cc1ccc(C(=O)O)cc1)C(=O)O; Trp(7-Me) = Cc1cccc2c(C[C@H](N)C(=O)O)c[nH]c12; Bip = N[C@@H](Cc1ccc(-c2ccccc2)cc1)C(=O)O; Phe(3-F) = N[C@@H](Cc1cccc(F)c1)C(=O)O; Phe(3-Me) = Cc1cccc(C[C@H](N)C(=O)O)c1; hArg = N=C(N)NCCCC[C@H](N)C(=O)O; 4Pal = N[C@@H](Cc1ccncc1)C(=O)O; Cit = NC(=O)NCCC[C@H](N)C(=O)O; Carboxymethyl = O=C(O)C*; NMeA = CN[C@@H](C)C(=O)O; Dab = NCC[C@H](N)C(=O)O; Dap = NC[C@H](N)C(=O)O

Each compound was assayed against T1, PE-labeled human PD-L1-Ig binding to Jurkat cell line over-expressing human PD-1 (Jurkat-PD-1) (Homo sapiens, UniProt Q15116) (assay: Jurkat-PD-1 Cell Binding High-Content Screening Assay (CBA): Method 1). Conditions: Jurkat-hPD-1 cells, PE-labeled PD-L1-Ig 20 nM final; read-out: Jurkat HPDL1 PD1 IC50 (uM) (Method 1).
T1 construct: expressed in transfected cells; host or cells: Jurkat
T1 sequence (Q15116 25-288): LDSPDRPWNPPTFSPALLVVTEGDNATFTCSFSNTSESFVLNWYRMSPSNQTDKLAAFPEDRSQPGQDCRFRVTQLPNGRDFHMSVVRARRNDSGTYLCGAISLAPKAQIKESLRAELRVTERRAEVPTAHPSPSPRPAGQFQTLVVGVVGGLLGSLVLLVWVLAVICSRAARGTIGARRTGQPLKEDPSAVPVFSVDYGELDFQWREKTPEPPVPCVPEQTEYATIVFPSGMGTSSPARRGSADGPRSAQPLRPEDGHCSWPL

Compound | IC50 [µM]
CC(C)C[C@@H]1NC(=O)[C@H](CCN)NC(=O)[C@@H](CC(C)C)NC(=O)[C@H](C)N(C)C(=O)[C@H](C(C)C)NC(=O)[C@H](Cc2ccc(-c3ccccc3)cc2)NC(=O)[C@H](C(C)C)NC(=O)[C@H](Cc2c[nH]c3ccccc23)NC(=O)[C@H](CC(=O)O)NC(=O)[C@H](Cc2ccc(OCC(=O)O)cc2)NC(=O)[C@H](Cc2ccncc2)NC(=O)CSC[C@@H](C(=O)N[C@@H](C)C(N)=O)NC(=O)[C@H]([C@@H](C)O)NC(=O)[C@H](C(C)C)NC1=O [Compound 1565] ({CH2CO}-[4Pal]Y(Carboxymethyl)DWV[Bip]V[NMeA][dL][Dab]LVTCA-NH2; thioether N-14) | 0.01
Cc1cccc(C[C@@H]2NC(=O)[C@H](CC(=O)O)NC(=O)[C@H](Cc3ccc(OCC(=O)O)cc3)NC(=O)[C@H](Cc3ccc(OCC(=O)O)cc3)NC(=O)CSC[C@@H](C(=O)N[C@@H](C)C(N)=O)NC(=O)[C@H](CO)NC(=O)[C@H](Cc3ccccc3)NC(=O)[C@H](CC(C)C)NC(=O)[C@H](CC(N)=O)NC(=O)[C@@H](CC(C)C)NC(=O)[C@H](C)N(C)C(=O)[C@H](Cc3ccccc3)NC(=O)[C@H](Cc3ccc(-c4ccccc4)cc3)NC(=O)[C@H](CC(C)C)NC2=O)c1 [Compound 1587] ({CH2CO}-Y(Carboxymethyl)Y(Carboxymethyl)D[Phe(3-Me)]L[Bip]F[NMeA][dL]NLFSCA-NH2; thioether N-14) | 0.7
CC(C)C[C@@H]1NC(=O)[C@H](Cc2c[nH]c3ccccc23)NC(=O)[C@H](CC(=O)O)NC(=O)[C@H](Cc2ccc(O)cc2)NC(=O)[C@H](Cc2ccccc2)NC(=O)CSC[C@@H](C(=O)N[C@@H](C)C(N)=O)NC(=O)[C@H](CO)NC(=O)[C@H](C(C)C)NC(=O)[C@H](CC(C)C)NC(=O)[C@H](CC(N)=O)NC(=O)[C@@H](C)NC(=O)[C@H](C)N(C)C(=O)[C@H](CCCNC(=N)N)NC(=O)[C@H](Cc2ccc(-c3ccccc3)cc2)NC1=O [Compound 1781] ({CH2CO}-FYDWL[Bip]R[NMeA][dA]NLVSCA-NH2; thioether N-14) | 0.08
CC(C)C[C@@H]1NC(=O)[C@H](CCN)NC(=O)[C@@H](CC(C)C)NC(=O)[C@H](C)N(C)C(=O)[C@H](CCCNC(N)=O)NC(=O)[C@H](Cc2ccc(-c3ccccc3)cc2)NC(=O)[C@H](C(C)C)NC(=O)[C@H](Cc2c[nH]c3ccccc23)NC(=O)[C@H](CC(=O)O)NC(=O)[C@H](Cc2ccc(O)cc2)NC(=O)[C@H](CCCCNC(=N)N)NC(=O)CSC[C@@H](C(=O)N[C@@H](C)C(N)=O)NC(=O)[C@H]([C@@H](C)O)NC(=O)[C@H](C(C)C)NC1=O [Compound 1349] ({CH2CO}-[hArg]YDWV[Bip][Cit][NMeA][dL][Dab]LVTCA-NH2; thioether N-14) | 0.06
Cc1cccc2c(CC3NC(=O)[C@H](CC(=O)O)NC(=O)[C@H](Cc4ccc(O)cc4)NC(=O)[C@H](Cc4ccccc4)NC(=O)CSC[C@@H](C(=O)N[C@@H](C)C(N)=O)NC(=O)[C@H]([C@@H](C)O)NC(=O)[C@H](C(C)C)NC(=O)[C@H](CC(C)C)NC(=O)[C@H](CCCNC(=N)N)NC(=O)[C@@H](CC(C)C)NC(=O)[C@H](C)N(C)C(=O)[C@H](CCCNC(=N)N)NC(=O)[C@H](Cc4ccc(-c5ccccc5)cc4)NC(=O)[C@H](C(C)C)NC3=O)n[nH]c12 (mixture of isomers) [Compound 1105] | 0.87
CC(C)C[C@@H]1NC(=O)[C@H](CCN)NC(=O)[C@@H](CC(C)C)NC(=O)[C@H](C)N(C)C(=O)[C@H](CCCNC(N)=O)NC(=O)[C@H](Cc2ccc(-c3ccccc3)cc2)NC(=O)[C@H](C(C)C)NC(=O)[C@H](Cc2c[nH]c3ccccc23)NC(=O)[C@H](CC(=O)O)NC(=O)[C@H](Cc2ccc(O)cc2)NC(=O)[C@H](CN)NC(=O)CSC[C@@H](C(=O)N[C@@H](C)C(N)=O)NC(=O)[C@H]([C@@H](C)O)NC(=O)[C@H](C(C)C)NC1=O [Compound 1345] ({CH2CO}-[Dap]YDWV[Bip][Cit][NMeA][dL][Dab]LVTCA-NH2; thioether N-14) | 0.01
CC(C)C[C@@H]1NC(=O)[C@H](CCCCN)NC(=O)[C@@H](CC(C)C)NC(=O)[C@H](C)N(C)C(=O)[C@H](CCCNC(N)=O)NC(=O)[C@H](Cc2ccc(-c3ccccc3)cc2)NC(=O)[C@H](C(C)C)NC(=O)[C@H](Cc2c[nH]c3ccccc23)NC(=O)[C@H](CC(=O)O)NC(=O)[C@H](Cc2ccc(O)cc2)NC(=O)[C@H](CC(N)=O)NC(=O)CSC[C@@H](C(=O)NCC(N)=O)NC(=O)[C@H]([C@@H](C)O)NC(=O)[C@H](C(C)C)NC1=O [Compound 1475] ({CH2CO}-NYDWV[Bip][Cit][NMeA][dL]KLVTCG-NH2; thioether N-14) | 0.05
Cc1cccc(C[C@@H]2NC(=O)[C@H](CC(=O)O)NC(=O)[C@H](Cc3ccc(C(=O)O)cc3)NC(=O)[C@H](CN)NC(=O)CSC[C@@H](C(=O)N[C@@H](C)C(N)=O)NC(=O)[C@H]([C@@H](C)O)NC(=O)[C@H](C(C)C)NC(=O)[C@H](CC(C)C)NC(=O)[C@H](CCN)NC(=O)[C@@H](CC(C)C)NC(=O)[C@H](C)N(C)C(=O)[C@H](CCCNC(=N)N)NC(=O)[C@H](Cc3ccc(-c4ccccc4)cc3)NC(=O)[C@H](C(C)C)NC2=O)c1 [Compound 1457] ({CH2CO}-[Dap][Phe(4-COOH)]D[Phe(3-Me)]V[Bip]R[NMeA][dL][Dab]LVTCA-NH2; thioether N-14) | 0.01
Cc1cccc2c(C[C@@H]3NC(=O)[C@H](CC(=O)O)NC(=O)[C@H](Cc4ccc(O)cc4)NC(=O)[C@H](Cc4ccccc4)NC(=O)CSC[C@@H](C(=O)N[C@@H](C)C(N)=O)NC(=O)[C@H]([C@@H](C)O)NC(=O)[C@H](C(C)C)NC(=O)[C@H](CC(C)C)NC(=O)[C@H](CCCNC(=N)N)NC(=O)[C@@H](CC(C)C)NC(=O)[C@H](C)N(C)C(=O)[C@H](CCCNC(=N)N)NC(=O)[C@H](Cc4ccc(-c5ccccc5)cc4)NC(=O)[C@H](C(C)C)NC3=O)c[nH]c12 [Compound 1097] ({CH2CO}-FYD[Trp(7-Me)]V[Bip]R[NMeA][dL]RLVTCA-NH2; thioether N-14) | 0.21
CC(C)C[C@@H]1NC(=O)[C@H](CCN)NC(=O)[C@@H](CC(C)C)NC(=O)[C@H](C)N(C)C(=O)[C@H](CCCNC(=N)N)NC(=O)[C@H](Cc2ccc(-c3ccccc3)cc2)NC(=O)[C@H](C(C)C)NC(=O)[C@H](Cc2c[nH]c3ccccc23)NC(=O)[C@H](CC(=O)O)NC(=O)[C@H](Cc2cccc(F)c2)NC(=O)[C@H](CC(N)=O)NC(=O)CSC[C@@H](C(=O)N[C@@H](C)C(N)=O)NC(=O)[C@H]([C@@H](C)O)NC(=O)[C@H](C(C)C)NC1=O [Compound 1309] ({CH2CO}-N[Phe(3-F)]DWV[Bip]R[NMeA][dL][Dab]LVTCA-NH2; thioether N-14) | 0.09
CC(C)C[C@@H]1NC(=O)[C@H](Cc2c[nH]c3ccccc23)NC(=O)[C@H](CC(=O)O)NC(=O)[C@H](Cc2ccc(O)cc2)NC(=O)[C@H](Cc2ccccc2)NC(=O)CSC[C@@H](C(=O)N[C@@H](C)C(N)=O)NC(=O)[C@H](CO)NC(=O)[C@H](CCCCN)NC(=O)[C@H](CC(C)C)NC(=O)[C@H](CC(N)=O)NC(=O)[C@@H](C)NC(=O)[C@H](C)N(C)C(=O)[C@H](C(C)C)NC(=O)[C@H](Cc2ccc(-c3ccccc3)cc2)NC1=O [Compound 1529] ({CH2CO}-FYDWL[Bip]V[NMeA][dA]NLKSCA-NH2; thioether N-14) | 0.05
